Measured values: PubChem BioAssay AID248 (DTP/NCI, 2004)
Several values for one entry are separate records, joined by “and”; a condition that tells them apart may be missing. Equal values may be shown once. Inconclusive results and toxic doses are left out. Cut-off read from the data, not from the text of the source: active = T/C of 150% or more; inactive = T/C below 125%.

System: L1210 leukemia ip in BDF1 mice, survival T/C
Assay: NCI In Vivo Anticancer Drug Screen. Data for tumor model L1210 Leukemia (intraperitoneal) in B6D2F1 (BDF1) mice
Conditions: endpoint: mean survival time, higher = longer survival
Summary of the method: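 Tumor cells were implanted, animals were treated, and survival was followed. The result divides the treated measurement by the vehicle-control measurement.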

[1] = dose: 100.0 mg/kg/injection, schedule: Q04DX003 (ip), vehicle: saline with Tween-80
[2] = dose: 200.0 mg/kg/injection, schedule: Q04DX003 (ip), vehicle: saline with Tween-80
[3] = dose: 100.0 mg/kg/injection, schedule: Q01DX009 (ip), vehicle: Klucel (hydroxypropylcellulose) (HPC)
[4] = dose: 100.0 mg/kg/injection, schedule: Q04DX003 (ip), vehicle: Klucel (hydroxypropylcellulose) (HPC)
[5] = dose: 200.0 mg/kg/injection, schedule: Q01DX009 (ip), vehicle: Klucel (hydroxypropylcellulose) (HPC)
[6] = dose: 200.0 mg/kg/injection, schedule: Q04DX003 (ip), vehicle: Klucel (hydroxypropylcellulose) (HPC)
[7] = dose: 400.0 mg/kg/injection, schedule: Q01DX009 (ip), vehicle: Klucel (hydroxypropylcellulose) (HPC)
[8] = dose: 400.0 mg/kg/injection, schedule: Q04DX003 (ip), vehicle: Klucel (hydroxypropylcellulose) (HPC)
[9] = dose: 100.0 mg/kg/injection, schedule: Q01DX001 (ip), vehicle: carboxymethylcellulose (CMC)
[10] = dose: 200.0 mg/kg/injection, schedule: Q01DX001 (ip), vehicle: carboxymethylcellulose (CMC)
[11] = dose: 400.0 mg/kg/injection, schedule: Q01DX001 (ip), vehicle: carboxymethylcellulose (CMC)
[12] = dose: 100.0 mg/kg/injection, schedule: Q01DX009 (ip), vehicle: saline with Tween-80
[13] = dose: 200.0 mg/kg/injection, schedule: Q01DX009 (ip), vehicle: saline with Tween-80
[14] = dose: 400.0 mg/kg/injection, schedule: Q01DX009 (ip), vehicle: saline with Tween-80
[15] = dose: 400.0 mg/kg/injection, schedule: Q04DX003 (ip), vehicle: saline with Tween-80
[16] = dose: 100.0 mg/kg/injection, schedule: Q01DX001 (ip), vehicle: saline
[17] = dose: 200.0 mg/kg/injection, schedule: Q01DX001 (ip), vehicle: saline
[18] = dose: 400.0 mg/kg/injection, schedule: Q01DX001 (ip), vehicle: saline

Measured: T/C

Brc1ccc(Nc2c3ccccc3nc3ccccc23)cc1
inactive: [1] 97 % of control | [2] 103 % of control

c1ccc2c(c1)-c1cccc3cccc-2c13
inactive: [3] 95 % of control | [4] 95 % of control | [5] 95 % of control | [6] 95 % of control | [7] 101 % of control | [8] 101 % of control

CCS(=O)(=O)CCOC(=O)c1ccc([N+](=O)[O-])cc1
inactive: [9] 100 % of control | [10] 105 % of control | [11] 98 % of control

CC1CC(C)(C)N=C(CCC2CCCC23OCCO3)O1 (configuration not stated)
inactive: dose: 100.0 mg/kg/injection, schedule: Q01DX009 (ip), vehicle: saline sonified 98 % of control | dose: 100.0 mg/kg/injection, schedule: Q04DX003 (ip), vehicle: saline sonified 101 % of control | dose: 200.0 mg/kg/injection, schedule: Q01DX009 (ip), vehicle: saline sonified 98 % of control | dose: 200.0 mg/kg/injection, schedule: Q04DX003 (ip), vehicle: saline sonified 101 % of control | dose: 400.0 mg/kg/injection, schedule: Q01DX009 (ip), vehicle: saline sonified 94 % of control | dose: 400.0 mg/kg/injection, schedule: Q04DX003 (ip), vehicle: saline sonified 101 % of control

CNNC(=O)CCc1ccccc1
inactive: dose: 10.0 mg/kg/injection, schedule: Q01DX009 (ip), vehicle: saline 103 % of control | dose: 20.0 mg/kg/injection, schedule: Q01DX009 (ip), vehicle: saline 93 % of control | dose: 40.0 mg/kg/injection, schedule: Q01DX009 (ip), vehicle: saline 90 % of control

Nc1c(C(=O)O)cccc1C(=O)O
inactive: [12] 98 % of control | [1] 110 % of control | [13] 107 % of control | [2] 108 % of control | [14] 107 % of control | [15] 96 % of control

BrC12CC3CC(C1)CC(Br)(C3)C2
inactive: dose: 50.0 mg/kg/injection, schedule: Q01DX001 (ip), vehicle: carboxymethylcellulose (CMC) 96 % of control | [9] 93 % of control | [10] 93 % of control | [11] 102 % of control

COC(=O)C1ON(C(=O)c2ccccc2)C(C)C(O)C1I (configuration not stated)
inactive: [4] 96 % of control | [6] 97 % of control | [8] 92 % of control

[I][Hg][I].c1ccc(P(N2CCCCC2)N2CCCCC2)cc1
inactive: [3] 102 % of control | [5] 97 % of control | [7] 97 % of control

CCCCNC(=O)c1cc(Cl)cc(Cl)c1Br
inactive: dose: 100.0 mg/kg/injection, schedule: Q01DX001 (ip), vehicle: saline with Tween-80 91 % of control | dose: 200.0 mg/kg/injection, schedule: Q01DX001 (ip), vehicle: saline with Tween-80 90 % of control | dose: 400.0 mg/kg/injection, schedule: Q01DX001 (ip), vehicle: saline with Tween-80 93 % of control

CS(=O)(=O)OCCNCCOS(C)(=O)=O
inactive: dose: 15.0 mg/kg/injection, schedule: Q01DX001 (ip), vehicle: saline 104 % of control | dose: 30.0 mg/kg/injection, schedule: Q01DX001 (ip), vehicle: saline 113 % of control | dose: 60.0 mg/kg/injection, schedule: Q01DX001 (ip), vehicle: saline 106 % of control | dose: 75.0 mg/kg/injection, schedule: Q01DX001 (ip), vehicle: saline 93 % of control

O=C(COc1ccc([N+](=O)[O-])cc1Cl)N1CCOCC1
inactive: [3] 103 % of control | [4] 98 % of control | [5] 97 % of control | [6] 103 % of control | [7] 101 % of control | [8] 95 % of control

CC1(C)N=C(N)N=C(N)N1c1ccc(Oc2ccc(S(=O)(=O)F)cc2)cc1
inactive: dose: 50.0 mg/kg/injection, schedule: Q01DX001 (ip), vehicle: Klucel (hydroxypropylcellulose) (HPC) 92 % of control | dose: 100.0 mg/kg/injection, schedule: Q01DX001 (ip), vehicle: Klucel (hydroxypropylcellulose) (HPC) 95 % of control | dose: 200.0 mg/kg/injection, schedule: Q01DX001 (ip), vehicle: Klucel (hydroxypropylcellulose) (HPC) 100 % of control

O=C(NCCO)Nc1ccccc1Cl
inactive: dose: 100.0 mg/kg/injection, schedule: Q04DX002 (ip), vehicle: saline 103 % of control | dose: 200.0 mg/kg/injection, schedule: Q04DX002 (ip), vehicle: saline 100 % of control | dose: 400.0 mg/kg/injection, schedule: Q04DX002 (ip), vehicle: saline 100 % of control

Cc1cccc2cc3cccc[n+]3cc12
inactive: dose: 1.56 mg/kg/injection, schedule: Q04DX003 (ip), vehicle: saline 101 % of control | dose: 3.12 mg/kg/injection, schedule: Q01DX009 (ip), vehicle: saline 96 % of control | dose: 3.12 mg/kg/injection, schedule: Q04DX003 (ip), vehicle: saline 93 % of control | dose: 6.25 mg/kg/injection, schedule: Q01DX009 (ip), vehicle: saline 96 % of control | dose: 6.25 mg/kg/injection, schedule: Q04DX003 (ip), vehicle: saline 97 % of control | dose: 12.5 mg/kg/injection, schedule: Q04DX003 (ip), vehicle: saline 100 % of control

Cc1ccccc1C1c2ccccc2C(=O)c2cccc(C)c21 (configuration not stated)
inactive: [12] 101 % of control | [1] 89 % of control | [13] 101 % of control | [2] 102 % of control | [14] 97 % of control | [15] 94 % of control

O=S(=O)(F)c1ccccc1S(=O)(=O)Cl
inactive: dose: 25.0 mg/kg/injection, schedule: Q04DX003 (ip), vehicle: Klucel (hydroxypropylcellulose) (HPC) 97 % of control | dose: 50.0 mg/kg/injection, schedule: Q04DX003 (ip), vehicle: Klucel (hydroxypropylcellulose) (HPC) 92 % of control | [9] 95 % of control | [4] 92 % of control

CCOC(=O)C1CN(C)C(=O)C1=O (configuration not stated)
inactive: dose: 50.0 mg/kg/injection, schedule: Q01DX001 (ip), vehicle: saline 100 % of control | [16] 93 % of control | [17] 87 % of control | [18] 114 % of control

COC(=O)C1(C)COP(=O)(Nc2ccc(Br)cc2)OC1 (configuration not stated)
inactive: [16] 96 % of control | [17] 86 % of control | [18] 91 % of control

O=C(Nc1ccc2oc(=O)c3ccccc3c2c1)C(Cl)Cl
inactive: dose: 15.0 mg/kg/injection, schedule: Q01DX015 (ip), vehicle: carboxymethylcellulose (CMC) 88 % of control | dose: 30.0 mg/kg/injection, schedule: Q01DX015 (ip), vehicle: carboxymethylcellulose (CMC) 88 % of control | dose: 60.0 mg/kg/injection, schedule: Q01DX015 (ip), vehicle: carboxymethylcellulose (CMC) 94 % of control | [9] 97 % of control | dose: 120.0 mg/kg/injection, schedule: Q01DX015 (ip), vehicle: carboxymethylcellulose (CMC) 93 % of control and 96 % of control | [10] 109 % of control | dose: 240.0 mg/kg/injection, schedule: Q01DX015 (ip), vehicle: carboxymethylcellulose (CMC) 98 % of control | [11] 103 % of control | dose: 480.0 mg/kg/injection, schedule: Q01DX015 (ip), vehicle: carboxymethylcellulose (CMC) 98 % of control
